Source: ChEMBL document CHEMBL1139671, “Nuphar alkaloids with immediately apoptosis-inducing activity from Nuphar pumilum and their structural requirements for the activity” (2006)

Tests used:
Type in all cases: functional
U-937 [1] = test: Cytotoxicity against U937 cells at 0.03 uM after 24 hrs; conditions: Homo sapiens, U-937, 24 h
B16-F10 [2] = test: Cytotoxicity against B16F10 cells at 0.1 uM after 24 hrs; conditions: Mus musculus, B16-F10, 24 h
B16-F10 [3] = test: Cytotoxicity against B16F10 cells at 1.0 uM after 24 hrs; conditions: Mus musculus, B16-F10, 24 h
U-937 [4] = test: Cytotoxicity against U937 cells at 0.03 uM after 72 hrs; conditions: Homo sapiens, U-937, 72 h
HT-1080 [5] = test: Cytotoxicity against HT1080 cells at 0.1 uM after 48 hrs; conditions: Homo sapiens, HT-1080, 48 h
U-937 [6] = test: Cytotoxicity against U937 cells at 0.1 uM after 48 hrs; conditions: Homo sapiens, U-937, 48 h
HT-1080 [7] = test: Cytotoxicity against HT1080 cells at 0.1 uM after 72 hrs; conditions: Homo sapiens, HT-1080, 72 h
HT-1080 [8] = test: Cytotoxicity against HT1080 cells at 1.0 uM after 48 hrs; conditions: Homo sapiens, HT-1080, 48 h
B16-F10 [9] = test: Cytotoxicity against B16F10 cells at 0.03 uM after 48 hrs; conditions: Mus musculus, B16-F10, 48 h
HT-1080 [10] = test: Cytotoxicity against HT1080 cells at 0.03 uM after 48 hrs; conditions: Homo sapiens, HT-1080, 48 h
B16-F10 [11] = test: Cytotoxicity against B16F10 cells at 1.0 uM after 72 hrs; conditions: Mus musculus, B16-F10, 72 h
U-937 [12] = test: Cytotoxicity against U937 cells at 1.0 uM after 72 hrs; conditions: Homo sapiens, U-937, 72 h
B16-F10 [13] = test: Cytotoxicity against B16F10 cells at 1.0 uM after 48 hrs; conditions: Mus musculus, B16-F10, 48 h
U-937 [14] = test: Cytotoxicity against U937 cells at 0.1 uM after 24 hrs; conditions: Homo sapiens, U-937, 24 h
U-937 [15] = test: Cytotoxicity against U937 cells at 0.1 uM after 72 hrs; conditions: Homo sapiens, U-937, 72 h
HT-1080 [16] = test: Cytotoxicity against HT1080 cells at 10 uM after 48 hrs; conditions: Homo sapiens, HT-1080, 48 h
U-937 [17] = test: Cytotoxicity against U937 cells at 10 uM after 48 hrs; conditions: Homo sapiens, U-937, 48 h
B16-F10 [18] = test: Cytotoxicity against B16F10 cells at 0.03 uM after 24 hrs; conditions: Mus musculus, B16-F10, 24 h
B16-F10 [19] = test: Cytotoxicity against B16F10 cells at 10 uM after 24 hrs; conditions: Mus musculus, B16-F10, 24 h
HT-1080 [20] = test: Cytotoxicity against HT1080 cells at 10 uM after 24 hrs; conditions: Homo sapiens, HT-1080, 24 h
HT-1080 [21] = test: Cytotoxicity against HT1080 cells at 0.1 uM after 24 hrs; conditions: Homo sapiens, HT-1080, 24 h
HT-1080 [22] = test: Cytotoxicity against HT1080 cells at 0.03 uM after 24 hrs; conditions: Homo sapiens, HT-1080, 24 h
U-937 [23] = test: Cytotoxicity against U937 cells at 0.03 uM after 48 hrs; conditions: Homo sapiens, U-937, 48 h
U-937 [24] = test: Cytotoxicity against U937 cells at 10 uM after 72 hrs; conditions: Homo sapiens, U-937, 72 h
HT-1080 [25] = test: Cytotoxicity against HT1080 cells at 0.03 uM after 72 hrs; conditions: Homo sapiens, HT-1080, 72 h
U-937 [26] = test: Cytotoxicity against U937 cells at 1.0 uM after 24 hrs; conditions: Homo sapiens, U-937, 24 h
B16-F10 [27] = test: Cytotoxicity against B16F10 cells at 0.03 uM after 72 hrs; conditions: Mus musculus, B16-F10, 72 h
HT-1080 [28] = test: Cytotoxicity against HT1080 cells at 1.0 uM after 24 hrs; conditions: Homo sapiens, HT-1080, 24 h
B16-F10 [29] = test: Cytotoxicity against B16F10 cells at 0.1 uM after 48 hrs; conditions: Mus musculus, B16-F10, 48 h
HT-1080 [30] = test: Cytotoxicity against HT1080 cells at 10 uM after 72 hrs; conditions: Homo sapiens, HT-1080, 72 h
U-937 [31] = test: Cytotoxicity against U937 cells at 10 uM after 24 hrs; conditions: Homo sapiens, U-937, 24 h
U-937 [32] = test: Cytotoxicity against U937 cells at 1.0 uM after 48 hrs; conditions: Homo sapiens, U-937, 48 h
HT-1080 [33] = test: Cytotoxicity against HT1080 cells at 1.0 uM after 72 hrs; conditions: Homo sapiens, HT-1080, 72 h
B16-F10 [34] = test: Cytotoxicity against B16F10 cells at 0.1 uM after 72 hrs; conditions: Mus musculus, B16-F10, 72 h
B16-F10 [35] = test: Cytotoxicity against B16F10 cells at 10 uM after 48 hrs; conditions: Mus musculus, B16-F10, 48 h
B16-F10 [36] = test: Cytotoxicity against B16F10 cells at 10 uM after 72 hrs; conditions: Mus musculus, B16-F10, 72 h

CC[C@@]1(O)C(=O)OCc2c1cc1n(c2=O)Cc2cc3ccccc3nc2-1 [CAMPTOTHECIN] showed an inhibition at 0.03 µM (U-937 [1]) of 7.1%, an inhibition at 0.1 µM (B16-F10 [2]) of 16.2% and an inhibition at 1 µM (B16-F10 [3]) of 47.8%. For the same compound, the inhibition at 0.03 µM (U-937 [4]) was 78.5%, the inhibition at 0.1 µM (HT-1080 [5]) was -11.7% and the inhibition at 0.1 µM (U-937 [6]) was 90.6%. It also gave an inhibition at 0.1 µM (HT-1080 [7]) of 5.4%, an inhibition at 1 µM (HT-1080 [8]) of 77% and an inhibition at 0.03 µM (B16-F10 [9]) of 7.5%. For the same compound, the inhibition at 0.03 µM (HT-1080 [10]) was -7.1%, the inhibition at 1 µM (B16-F10 [11]) was 93.5% and the inhibition at 1 µM (U-937 [12]) was 98.2%. The inhibition at 1 µM (B16-F10 [13]) was 83.2%, the inhibition at 0.1 µM (U-937 [14]) was 46% and the inhibition at 0.1 µM (U-937 [15]) was 95.3%. The inhibition at 10 µM (HT-1080 [16]) was 93.1%, the inhibition at 10 µM (U-937 [17]) was 98.2% and the inhibition at 0.03 µM (B16-F10 [18]) was -1.9%. It also gave an inhibition at 10 µM (B16-F10 [19]) of 60.6%, an inhibition at 10 µM (HT-1080 [20]) of 62% and an inhibition at 0.1 µM (HT-1080 [21]) of -0.4%. It also gave an inhibition at 0.03 µM (HT-1080 [22]) of -3.8%, an inhibition at 0.03 µM (U-937 [23]) of 61.9% and an inhibition at 10 µM (U-937 [24]) of 98%. It also gave an inhibition at 0.03 µM (HT-1080 [25]) of -3.2%, an inhibition at 1 µM (U-937 [26]) of 75.8% and an inhibition at 0.03 µM (B16-F10 [27]) of 33.4%. The inhibition at 1 µM (HT-1080 [28]) was 49.5%, the inhibition at 0.1 µM (B16-F10 [29]) was 39.1% and the inhibition at 10 µM (HT-1080 [30]) was 93.8%. The inhibition at 10 µM (U-937 [31]) was 75%, the inhibition at 1 µM (U-937 [32]) was 94.6% and the inhibition at 1 µM (HT-1080 [33]) was 65.8%. The inhibition at 0.1 µM (B16-F10 [34]) was 76.9%, the inhibition at 10 µM (B16-F10 [35]) was 94.7% and the inhibition at 10 µM (B16-F10 [36]) was 98.1%.
